Results published in article PMC12067444, “Synthesis and Pharmacological Characterization of Novel Peripheral Cannabinoid-1 Receptor Blockers Based on a Tricyclic Scaffold” (Journal of Medicinal Chemistry, 2025).

What was measured:
human CB2R = molecular target: T1, human CB2R (Homo sapiens, UniProt P34972); test: Radioligand competition displacement binding, [3H]CP-55,940, membranes with human CB2R; details: [3H]CP-55,940 displacement, read-out: CB2R hKi
T1 construct: purchased PerkinElmer; Charles River RBXCB2M400UA; A618
T1 sequence (P34972 whole entry): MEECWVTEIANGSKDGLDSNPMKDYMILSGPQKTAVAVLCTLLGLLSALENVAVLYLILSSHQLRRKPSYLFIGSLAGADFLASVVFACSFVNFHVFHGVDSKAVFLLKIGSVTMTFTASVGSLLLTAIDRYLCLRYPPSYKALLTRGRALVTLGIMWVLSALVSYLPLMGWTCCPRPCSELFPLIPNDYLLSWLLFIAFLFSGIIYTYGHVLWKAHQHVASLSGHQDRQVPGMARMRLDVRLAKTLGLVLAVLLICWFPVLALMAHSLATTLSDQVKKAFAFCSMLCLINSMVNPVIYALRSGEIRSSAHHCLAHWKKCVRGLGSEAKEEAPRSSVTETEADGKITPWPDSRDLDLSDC
Procedure: BNS compounds’ binding to CB1R and CB2R was assessed in competition displacement assays using [^3H]CP-55,940 as the radioligand and crude membranes from mouse brain or human cells overexpressing the CB1R or CB2R. All data were in triplicates with Ki values determined from three independent experiments. See SI for a detailed procedure.
Supplementary Experimental Methods […]
CB1R and CB2R binding. Binding to the CB1R/CB2R was asse ss ed using competition displacement as says with [ 3H] CP -55,940 as the radioligand. Purified membranes from the mouse brain were utilized for CB1R assessment (as described above). Purified […]
membranes from cells overexpressing human CB2R ( Char les River CAT # A618) w e r e employed for CB2R evaluation. […]
Radioligand binding assays were performed to asse ss the binding affinity of the different compounds to hCB1R (RBHCB1M4 00UA; Per kinElmer) or hCB 2R
(RBXCB2 M400UA; PerkinElmer). Competition displacement as says w ere employed, […]
utilizing [3H] C P -55,940 as the radioligand and crude membranes from humans for CB1 R or CB2 R. T he compounds were tested at various concentrations (eight points with a five-fold serial dilution starting at two m M) , and their ability to displace [3H] CP - 55, 940 was evaluated. Upon completion of the binding assays, the reaction mixture was filtered through GF/C plates, followed by four washes with cold wash buffer. After drying for one hour, 50 μL of Perkin Elmer Microscint 20 cocktail was added to the filter plate wells, and the bound [3H] C P -55,940 radioligand was measured using a β counter. All data points were duplicated, and Ki values were determined from two independent experiments using GraphPad Prism 7.02 analysis software, extracted through nonlinear regression analysis. […]
MgCl 2. The tissue was homogenized using a glass -Teflon and Hei-T ORQUE 200 homogenizer (Heidolph; Cat#17- 012- 002- 25 -1) set to 132 rpm. The resulting suspen sion underwent centrifugation at 48,000 × g for 20 min at four °C, and the supernatant was discarded. The pellet obtained was homogenized again and subjected to a second centrifugation under the same conditions. Subsequently, the resulting pellet […]
mM EGTA, 9 mM MgCl 2, and 150 mM NaCl, followed by homogenization. The protein concentration of the suspension was determined using the BCA assay, and the suspen sion was diluted to a final concentration of 2 mg/mL in assay buffer. The prepared suspension was aliquoted on ice and stored at - 80 °C for further use.

P-gp (MDR1) = P-gp (MDR1) (Homo sapiens, UniProt P08183); test: Bidirectional permeability in MDR1-MDCKII cells with and without GF120918; details: dog; for Papp A→B at 2.5 h / Papp B→A at 2.5 h / efflux ratio at 2.5 h: MDCK-MDR1
P-gp (MDR1), sequence (P08183 whole entry): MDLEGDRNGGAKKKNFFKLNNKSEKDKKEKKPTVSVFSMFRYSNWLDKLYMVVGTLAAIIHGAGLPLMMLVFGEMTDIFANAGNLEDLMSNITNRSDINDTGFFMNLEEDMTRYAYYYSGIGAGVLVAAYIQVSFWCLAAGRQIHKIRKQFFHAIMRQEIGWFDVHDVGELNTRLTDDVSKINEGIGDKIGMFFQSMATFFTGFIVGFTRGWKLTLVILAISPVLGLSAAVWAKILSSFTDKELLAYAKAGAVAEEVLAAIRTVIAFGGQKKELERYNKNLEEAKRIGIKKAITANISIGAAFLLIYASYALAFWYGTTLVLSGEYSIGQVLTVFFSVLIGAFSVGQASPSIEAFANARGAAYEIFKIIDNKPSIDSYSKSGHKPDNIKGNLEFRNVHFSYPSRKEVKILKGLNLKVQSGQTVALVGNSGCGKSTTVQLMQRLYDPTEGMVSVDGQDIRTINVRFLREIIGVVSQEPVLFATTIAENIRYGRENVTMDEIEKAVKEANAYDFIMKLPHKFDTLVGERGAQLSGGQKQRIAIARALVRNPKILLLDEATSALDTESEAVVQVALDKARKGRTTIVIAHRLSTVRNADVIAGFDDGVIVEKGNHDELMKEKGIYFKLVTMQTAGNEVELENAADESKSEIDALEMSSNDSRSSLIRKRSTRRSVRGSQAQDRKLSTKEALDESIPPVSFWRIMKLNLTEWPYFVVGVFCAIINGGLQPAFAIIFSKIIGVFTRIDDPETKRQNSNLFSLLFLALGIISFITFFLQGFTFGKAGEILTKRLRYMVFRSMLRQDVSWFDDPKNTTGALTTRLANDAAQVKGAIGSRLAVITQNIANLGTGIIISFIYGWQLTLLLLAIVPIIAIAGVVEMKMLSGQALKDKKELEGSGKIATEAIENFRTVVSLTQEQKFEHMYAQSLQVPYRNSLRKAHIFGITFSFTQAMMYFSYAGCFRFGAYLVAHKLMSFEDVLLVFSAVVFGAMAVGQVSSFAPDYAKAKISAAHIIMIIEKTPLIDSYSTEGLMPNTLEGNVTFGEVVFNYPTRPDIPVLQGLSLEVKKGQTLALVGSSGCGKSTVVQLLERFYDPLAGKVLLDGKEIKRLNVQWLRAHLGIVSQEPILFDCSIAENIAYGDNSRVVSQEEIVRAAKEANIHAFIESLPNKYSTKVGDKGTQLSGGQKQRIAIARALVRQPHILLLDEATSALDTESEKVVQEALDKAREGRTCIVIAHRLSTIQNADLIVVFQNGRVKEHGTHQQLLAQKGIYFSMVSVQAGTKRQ
Procedure: (§1) MDR1-MDCKII cells were seeded onto […] (PET) in a 96-well insert system. Test and reference compounds were administered to the apical (A-to-B) and basolateral (B-to-A) sides of the cell monolayer. Permeation of the compounds in both directions was assessed, with and without a P-glycoprotein (P-gp) inhibitor (GF120918). […] After a 2.5-h incubation period, each compound’s permeability and efflux ratio were calculated as described in the SI. […]
(§2) Bidirectional permeability assessment in MDR1-MDCK cells. Test and reference compounds were quantified using LC -MS/MS ana lysis based on th e peak ar ea r atio of analyte to internal standard (IS). T he apparent permeability coefficient (Papp) in cm/s was computed using the equation: Pa pp = (dCr/d t ) × V r / ( A × C 0), where dCr/ d t […]
(§3) represents the cumulative concentration of the compound in the receiver chamber over time (µM/s), Vr is the solution volume in the receiver chamber (0.075 mL on the apical side, 0.25 mL on the basolateral side), A is the surface area for transport (0.0804 cm2 f or the monolayer ar ea), and C0 is the initial concentration in the donor chamber ( µM) .
(§4) The efflux ratio was determined using the equation Efflux Ratio = P a pp ( B:
(§5) A ) / Pa pp (A: B) . […]
(§6) Additionally, the percent of lucifer yellow in the basolateral well was calculated using the equation:
(§7) Lucif er yellow = VV bbbbbbbbbbbbbbbbbbbb ×RR FFFF bbbbbbbbbbbbbbbbbbbb ×100 VV bbaaaaaa bbbb ×RRRRRR bbaaaaaa bbbb+VV bbbbbbbbbbbbbbbbbbbb ×RRFFFF bbbbbbbbbbbbbbbbbbbb wher e RFUApical and RFUBasolateral demote the r elative f luor escence unit values of lucif er yellow in the apical and basolateral wells, respectively, and VApical and VBasolateral represent the volumes of apical and basolateral wells (0.075 mL and 0.25 mL, r espectively) . T he % Lucif er Yellow should be less than 2, indicating minimal leakage. […]

P-gp (MDR1-MDCKII cells) = P-gp (MDR1-MDCKII cells) (Homo sapiens, UniProt P08183); test: as above; details: for P-gp substrate: MDR1-MDCKII cells; for Rank Papp: MDR1-MDCKII permeability rank
P-gp (MDR1-MDCKII cells), sequence (P08183 whole entry): as above
Procedure: as §1, §2, §3, §4, §5, §6, §7

[1] = MDCK-MDR1, Mean recovery % A to B, without GF120918
[2] = MDCK-MDR1, Mean recovery % B to A, without GF120918

SMILES | Ki (human CB2R) | Papp A→B at 2.5 h (P-gp (MDR1)) | Papp B→A at 2.5 h (P-gp (MDR1)) | efflux ratio at 2.5 h (P-gp (MDR1)) | recovery at 2.5 h (P-gp (MDR1); MDCK-MDR1, Mean recovery % A to B, with GF120918) | recovery at 2.5 h (P-gp (MDR1); [1]) | recovery at 2.5 h (P-gp (MDR1); MDCK-MDR1, Mean recovery % B to A, with GF120918) | recovery at 2.5 h (P-gp (MDR1); [2]) | Papp A:B (P-gp (MDR1-MDCKII cells); A to B, without GF120918) | P-gp substrate (P-gp (MDR1-MDCKII cells)) | Rank Papp (P-gp (MDR1-MDCKII cells)) | recovery at 2.5 h (P-gp (MDR1); MDCK-MDR1, with GF120918 (concentration not stated), Mean recovery % A to B, with GF120918) | recovery at 2.5 h (P-gp (MDR1); MDCK-MDR1, with GF120918 (concentration not stated), Mean recovery % B to A, with GF120918)
Cc1ccc(S(=O)(=O)NC2CCCOc3c2nn(-c2ccccc2Cl)c3-c2ccc(Cl)cc2)cc1 (stereo not shown) [BNS807] | 1650 nM | – | – | – | – | – | – | – | – | – | – | – | –
O=S(=O)(NC1CCCOc2c1nn(-c1ccccc1Cl)c2-c1ccc(Cl)cc1)c1ccc(Cl)cc1 (stereo not shown) [BNS808, 4-chloro-N-[2-(2-chlorophenyl)-3-(4-chlorophenyl)-5,6,7,8-tetrahydrooxepino[3,2-c]pyrazol-8-yl]benzenesulfonamide] | 1930 nM | 0.26 ×10⁻⁶ cm/s | 1.01 ×10⁻⁶ cm/s | 3.95 | 7.87% | 7.9% | 23.4% | 15.3% | 0.26 ×10^–6 cm/s | P-gp substrate and P-gp substrates and yes | Low | – | –
CS(=O)(=O)N1CCC(C(=O)NC2CCCOc3c2nn(-c2ccccc2Cl)c3-c2ccc(Cl)cc2)CC1 (stereo not shown) [BNS815, N-[2-(2-Chlorophenyl)-3-(4-chlorophenyl)-5,6,7,8-tetrahydrooxepino[3,2-c]pyrazol-8-yl]-1-methylsulfonyl-piperidine-4-carboxamide] | 6310 nM | 10.1 ×10⁻⁶ cm/s | 18.9 ×10⁻⁶ cm/s | 1.87 | – | 75.2% | – | 76.1% | – | yes | Hi gh | 63.8% | 77.6%
